*1 amine or outer side, *2 acyl side, *3 side chain or, on linkers, in order; H or OH if unused. Where a SMILES comes first, the peptide text is derived from it. Side-chain parts run from the residue outwards. [ ]: non-standard residue; d: D form. The star is where a group is joined. γGlu = O=C(O)[C@H](CCC(=O)[*:2])N[*:1]; Stearoyl = CCCCCCCCCCCCCCCCCC(=O)*; Palmitoyl = CCCCCCCCCCCCCCCC(=O)*; Aib = CC(C)(N)C(=O)O
Legend:
Type in all cases: cell-based
Conditions in all cases: Table 7; cAMP formation
[1] = molecular target: T1, human GLP-1 receptor (hGLP-1 R) (Homo sapiens, UniProt P43220); assay: cAMP response of HEK-293 cells stably expressing human GLP-1 receptor (HTRF)
T1 construct: expressed in transfected cells
T1 sequence (P43220 24-463): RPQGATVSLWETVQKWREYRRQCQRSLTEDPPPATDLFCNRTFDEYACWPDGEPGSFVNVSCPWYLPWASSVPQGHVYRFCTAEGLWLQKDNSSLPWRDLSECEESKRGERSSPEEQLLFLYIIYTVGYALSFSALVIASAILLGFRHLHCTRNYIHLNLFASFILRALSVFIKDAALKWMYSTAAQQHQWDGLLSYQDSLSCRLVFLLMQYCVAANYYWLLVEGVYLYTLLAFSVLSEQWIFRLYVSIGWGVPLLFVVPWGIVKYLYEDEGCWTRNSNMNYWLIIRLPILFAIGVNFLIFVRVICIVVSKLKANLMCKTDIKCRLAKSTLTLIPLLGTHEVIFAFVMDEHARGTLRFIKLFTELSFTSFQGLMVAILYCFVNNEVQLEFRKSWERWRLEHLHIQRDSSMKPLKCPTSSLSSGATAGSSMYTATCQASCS
Summary of the method: (§1)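 cAMP accumulation was read by homogeneous time-resolved fluorescence after 30 min compound exposure at room temperature. Stable receptor-expressing HEK-293 cells, 400000 cells/ml, were used in HEPES-buffered HBSS containing 0.1% BSA and the phosphodiesterase inhibitor IBMX (2 mM).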

[2] = molecular target: T2, human GIP receptor (hGIP R) (Homo sapiens, UniProt P48546); assay: cAMP response of HEK-293 cells stably expressing human GIP receptor (HTRF)
T2 construct: expressed in transfected cells
T2 sequence (P48546 22-466): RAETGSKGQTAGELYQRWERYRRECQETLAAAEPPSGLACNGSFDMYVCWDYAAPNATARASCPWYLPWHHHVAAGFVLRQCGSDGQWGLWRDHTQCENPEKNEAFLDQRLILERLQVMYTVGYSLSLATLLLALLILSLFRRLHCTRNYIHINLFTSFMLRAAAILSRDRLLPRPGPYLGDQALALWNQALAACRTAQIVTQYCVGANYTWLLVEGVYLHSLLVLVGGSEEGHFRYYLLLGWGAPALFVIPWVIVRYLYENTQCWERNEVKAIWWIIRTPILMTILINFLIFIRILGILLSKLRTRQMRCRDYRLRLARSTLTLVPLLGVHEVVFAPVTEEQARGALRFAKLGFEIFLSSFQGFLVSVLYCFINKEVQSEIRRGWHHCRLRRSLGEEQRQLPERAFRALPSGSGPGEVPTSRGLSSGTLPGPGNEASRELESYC
Summary of the method: as §1

[3] = molecular target: T3, human glucagon receptor (hGLUC R) (Homo sapiens, UniProt P47871); assay: cAMP response of HEK-293 cells stably expressing human glucagon receptor (HTRF)
T3 construct: expressed in transfected cells
T3 sequence (P47871 26-477): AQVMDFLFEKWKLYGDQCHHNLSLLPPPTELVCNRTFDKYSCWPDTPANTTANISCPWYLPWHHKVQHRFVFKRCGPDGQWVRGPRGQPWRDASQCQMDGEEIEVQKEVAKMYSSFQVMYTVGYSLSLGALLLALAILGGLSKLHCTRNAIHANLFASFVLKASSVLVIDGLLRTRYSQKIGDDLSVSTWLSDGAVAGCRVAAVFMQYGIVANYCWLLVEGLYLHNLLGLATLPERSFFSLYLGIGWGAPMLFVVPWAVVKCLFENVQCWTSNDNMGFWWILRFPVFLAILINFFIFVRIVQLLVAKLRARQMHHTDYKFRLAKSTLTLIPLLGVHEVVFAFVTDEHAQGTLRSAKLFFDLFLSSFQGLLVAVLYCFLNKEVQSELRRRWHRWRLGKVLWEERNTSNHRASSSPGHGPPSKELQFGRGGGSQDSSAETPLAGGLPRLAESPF
Summary of the method: as §1

Structure (SMILES)	EC50 [1] [nM]	EC50 [2] [nM]	EC50 [3] [nM]
CCCCCCCCCCCCCCCCCC(=O)N[C@@H](CCC(=O)NCCCC[C@H](NC(=O)[C@H](CCC(N)=O)NC(=O)[C@@H](NC(=O)[C@H](CO)NC(=O)[C@H](CC(C)C)NC(=O)[C@H](CC(=O)O)NC(=O)[C@H](CO)NC(=O)[C@@H](NC(=O)[C@H](Cc1ccccc1)NC(=O)[C@@H](NC(=O)CNC(=O)[C@H](CCC(=O)O)NC(=O)C(C)(C)NC(=O)[C@@H](N)Cc1ccc(O)cc1)[C@@H](C)O)[C@@H](C)O)[C@@H](C)CC)C(=O)N[C@@H](CCC(=O)O)C(=O)N[C@@H](CCC(=O)O)C(=O)N[C@@H](CCC(=O)O)C(=O)N[C@@H](C)C(=O)N[C@H](C(=O)N[C@@H](CCCCN)C(=O)N[C@@H](CC(C)C)C(=O)N[C@@H](Cc1ccccc1)C(=O)N[C@H](C(=O)N[C@@H](CCC(=O)O)C(=O)N[C@@H](Cc1c[nH]c2ccccc12)C(=O)N[C@@H](CC(C)C)C(=O)N[C@@H](CCCCN)C(=O)N[C@@H](C)C(=O)NCC(=O)NCC(=O)N1CCC[C@H]1C(=O)N[C@@H](CO)C(=O)N[C@@H](CO)C(=O)NCC(=O)N[C@@H](C)C(=O)N1CCC[C@H]1C(=O)N1CCC[C@H]1C(=O)N1CCC[C@H]1C(=O)N[C@@H](CO)C(N)=O)[C@@H](C)CC)C(C)C)C(=O)O [SEQ ID NO: 62, Y-Aib-E-G-T-F-T-S-D-L-S-I-Q-K(yE-x70)-EEEAVKLFIEWLKAGGPSSGAPPPS-NH2] (H-Y[Aib]EGTFTSDLSIQK([γGlu-Stearoyl])EEEAVKLFIEWLKAGGPSSGAPPPS-NH2)	0.0076	0.0067	> 1000
CCCCCCCCCCCCCCCC(=O)N[C@@H](CCC(=O)NCCCC[C@H](NC(=O)[C@H](CCC(N)=O)NC(=O)[C@@H](NC(=O)[C@H](CO)NC(=O)[C@H](CC(C)C)NC(=O)[C@H](CC(=O)O)NC(=O)[C@H](CO)NC(=O)[C@@H](NC(=O)[C@H](Cc1ccccc1)NC(=O)[C@@H](NC(=O)CNC(=O)[C@H](CCC(N)=O)NC(=O)C(C)(C)NC(=O)[C@@H](N)Cc1ccc(O)cc1)[C@@H](C)O)[C@@H](C)O)[C@@H](C)CC)C(=O)N[C@@H](CC(=O)O)C(=O)N[C@@H](CO)C(=O)N[C@@H](CCCNC(=N)N)C(=O)N[C@@H](C)C(=O)N[C@@H](CCC(N)=O)C(=O)N[C@@H](CCC(N)=O)C(=O)N[C@@H](CC(=O)O)C(=O)N[C@@H](Cc1ccccc1)C(=O)N[C@H](C(=O)N[C@@H](CCC(=O)O)C(=O)N[C@@H](Cc1c[nH]c2ccccc12)C(=O)N[C@@H](CC(C)C)C(=O)N[C@@H](CCCCN)C(=O)N[C@@H](C)C(=O)NCC(=O)NCC(=O)N1CCC[C@H]1C(=O)N[C@@H](CO)C(=O)N[C@@H](CO)C(=O)NCC(=O)N[C@@H](C)C(=O)N1CCC[C@H]1C(=O)N1CCC[C@H]1C(=O)N1CCC[C@H]1C(=O)N[C@@H](CO)C(N)=O)[C@@H](C)CC)C(=O)O [SEQ ID NO: 51, Y-Aib-Q-G-T-F-T-S-D-L-S-I-Q-K(yE-x53)-DSRAQQDFIEWLKAGGPSSGAPPPS-NH2] (H-Y[Aib]QGTFTSDLSIQK([γGlu-Palmitoyl])DSRAQQDFIEWLKAGGPSSGAPPPS-NH2)	0.0042	0.0063	0.571
CCCCCCCCCCCCCCCC(=O)N[C@@H](CCC(=O)NCCCC[C@H](NC(=O)[C@H](CCC(N)=O)NC(=O)[C@@H](NC(=O)[C@H](CO)NC(=O)[C@H](CC(C)C)NC(=O)[C@H](CC(=O)O)NC(=O)[C@H](CO)NC(=O)[C@@H](NC(=O)[C@H](Cc1ccccc1)NC(=O)[C@@H](NC(=O)CNC(=O)[C@H](CCC(N)=O)NC(=O)C(C)(C)NC(=O)[C@@H](N)Cc1ccc(O)cc1)[C@@H](C)O)[C@@H](C)O)[C@@H](C)CC)C(=O)N[C@@H](CC(=O)O)C(=O)N[C@@H](CO)C(=O)N[C@H](C(=O)N[C@@H](C)C(=O)N[C@@H](C)C(=O)N[C@@H](CCC(N)=O)C(=O)N[C@@H](CC(=O)O)C(=O)N[C@@H](Cc1ccccc1)C(=O)N[C@H](C(=O)N[C@@H](CCC(=O)O)C(=O)N[C@@H](Cc1c[nH]c2ccccc12)C(=O)N[C@@H](CC(C)C)C(=O)N[C@@H](CCCCN)C(=O)N[C@@H](C)C(=O)NCC(=O)NCC(=O)N1CCC[C@H]1C(=O)N[C@@H](CO)C(=O)N[C@@H](CO)C(=O)NCC(=O)N[C@@H](C)C(=O)N1CCC[C@H]1C(=O)N1CCC[C@H]1C(=O)N1CCC[C@H]1C(=O)N[C@@H](CO)C(N)=O)[C@@H](C)CC)[C@@H](C)CC)C(=O)O [SEQ ID NO: 49, Y-Aib-Q-G-T-F-T-S-D-L-S-I-Q-K(yE-x53)-DSIAAQDFIEWLKAGGPSSGAPPPS-NH2] (H-Y[Aib]QGTFTSDLSIQK([γGlu-Palmitoyl])DSIAAQDFIEWLKAGGPSSGAPPPS-NH2)	0.0172	0.0456	0.195
CCCCCCCCCCCCCCCC(=O)N[C@@H](CCC(=O)NCCCC[C@H](NC(=O)[C@H](CCC(N)=O)NC(=O)[C@@H](NC(=O)[C@H](CO)NC(=O)[C@H](CC(C)C)NC(=O)[C@H](CC(=O)O)NC(=O)[C@H](CO)NC(=O)[C@@H](NC(=O)[C@H](Cc1ccccc1)NC(=O)[C@@H](NC(=O)CNC(=O)[C@H](CCC(N)=O)NC(=O)C(C)(C)NC(=O)[C@@H](N)Cc1ccc(O)cc1)[C@@H](C)O)[C@@H](C)O)[C@@H](C)CC)C(=O)N[C@@H](CCC(=O)O)C(=O)N[C@@H](CCCCN)C(=O)NC(C)(C)C(=O)N[C@@H](C)C(=O)N[C@@H](C)C(=O)NC(C)(C)C(=O)N[C@@H](CCC(=O)O)C(=O)N[C@@H](Cc1ccccc1)C(=O)N[C@H](C(=O)N[C@@H](CCC(=O)O)C(=O)N[C@@H](Cc1c[nH]c2ccccc12)C(=O)N[C@@H](CC(C)C)C(=O)N[C@@H](CCCCN)C(=O)N[C@@H](CC(N)=O)C(=O)N[C@H](C(=O)NCC(=O)N1CCC[C@H]1C(=O)N[C@@H](CO)C(=O)N[C@@H](CO)C(=O)NCC(=O)N[C@@H](C)C(=O)N1CCC[C@H]1C(=O)N1CCC[C@H]1C(=O)N1CCC[C@H]1C(=O)N[C@@H](CO)C(N)=O)[C@@H](C)O)[C@@H](C)CC)C(=O)O [SEQ ID NO: 9, Y-Aib-Q-G-T-F-T-S-D-L-S-I-Q-K(yE-x53)-E-K-Aib-A-A-Aib-E-F-I-E-W-L-K-N-T-G-P-S-S-G-A-P-P-P-S-NH2] (H-Y[Aib]QGTFTSDLSIQK([γGlu-Palmitoyl])EK[Aib]AA[Aib]EFIEWLKNTGPSSGAPPPS-NH2)	0.0055	0.009	0.445
CCCCCCCCCCCCCCCC(=O)N[C@@H](CCC(=O)NCCCC[C@H](NC(=O)[C@H](CCC(N)=O)NC(=O)[C@H](CCCCN)NC(=O)[C@H](CO)NC(=O)[C@H](CC(C)C)NC(=O)[C@H](CC(=O)O)NC(=O)[C@H](CO)NC(=O)[C@@H](NC(=O)[C@H](Cc1ccccc1)NC(=O)[C@@H](NC(=O)CNC(=O)[C@H](CCC(=O)O)NC(=O)C(C)(C)NC(=O)[C@@H](N)Cc1ccc(O)cc1)[C@@H](C)O)[C@@H](C)O)C(=O)N[C@@H](CC(=O)O)C(=O)N[C@@H](CCCCN)C(=O)N[C@@H](CCCNC(=N)N)C(=O)N[C@@H](C)C(=O)N[C@@H](C)C(=O)N[C@@H](CCC(N)=O)C(=O)N[C@@H](CC(=O)O)C(=O)N[C@@H](Cc1ccccc1)C(=O)N[C@H](C(=O)N[C@@H](CCC(=O)O)C(=O)N[C@@H](Cc1c[nH]c2ccccc12)C(=O)N[C@@H](CC(C)C)C(=O)N[C@@H](CCCCN)C(=O)N[C@@H](C)C(=O)NCC(=O)NCC(=O)N1CCC[C@H]1C(=O)N[C@@H](CO)C(=O)N[C@@H](CO)C(=O)NCC(=O)N[C@@H](C)C(=O)N1CCC[C@H]1C(=O)N1CCC[C@H]1C(=O)N1CCC[C@H]1C(=O)N[C@@H](CO)C(N)=O)[C@@H](C)CC)C(=O)O [SEQ ID NO: 63, Y-Aib-E-G-T-F-T-S-D-L-S-K-Q-K(yE-x53)-DKRAAQDFIEWLKAGGPSSGAPPPS-NH2] (H-Y[Aib]EGTFTSDLSKQK([γGlu-Palmitoyl])DKRAAQDFIEWLKAGGPSSGAPPPS-NH2)	0.006	0.0119	1.67
CCCCCCCCCCCCCCCC(=O)N[C@@H](CCC(=O)NCCCC[C@H](NC(=O)[C@H](CCC(N)=O)NC(=O)[C@@H](NC(=O)[C@H](CO)NC(=O)[C@H](CC(C)C)NC(=O)[C@H](CC(=O)O)NC(=O)[C@H](CO)NC(=O)[C@@H](NC(=O)[C@H](Cc1ccccc1)NC(=O)[C@@H](NC(=O)CNC(=O)[C@H](CCC(=O)O)NC(=O)C(C)(C)NC(=O)[C@@H](N)Cc1ccc(O)cc1)[C@@H](C)O)[C@@H](C)O)[C@@H](C)CC)C(=O)N[C@@H](CC(=O)O)C(=O)N[C@@H](CCCCN)C(=O)N[C@@H](CCCNC(=N)N)C(=O)N[C@@H](C)C(=O)N[C@@H](C)C(=O)N[C@@H](CCC(N)=O)C(=O)N[C@@H](CC(C)C)C(=O)N[C@@H](Cc1ccccc1)C(=O)N[C@H](C(=O)N[C@@H](CCC(=O)O)C(=O)N[C@@H](Cc1c[nH]c2ccccc12)C(=O)N[C@@H](CC(C)C)C(=O)N[C@@H](CCCCN)C(=O)N[C@@H](CC(N)=O)C(=O)NCC(=O)NCC(=O)N1CCC[C@H]1C(=O)N[C@@H](CO)C(=O)N[C@@H](CO)C(=O)NCC(=O)N[C@@H](C)C(=O)N1CCC[C@H]1C(=O)N1CCC[C@H]1C(=O)N1CCC[C@H]1C(=O)N[C@@H](CO)C(N)=O)[C@@H](C)CC)C(=O)O [SEQ ID NO: 55, Y-Aib-E-G-T-F-T-S-D-L-S-I-Q-K(yE-x53)-DKRAAQLFIEWLKNGGPSSGAPPPS-NH2] (H-Y[Aib]EGTFTSDLSIQK([γGlu-Palmitoyl])DKRAAQLFIEWLKNGGPSSGAPPPS-NH2)	0.0161	0.0156	18.3

Source: patent publication US20140213513A1 (Sanofi, priority 2012, published 2014)
